Some test systems named below: ACHN; COLO 205; EKVX; HCC 2998; HCT-116; HOP-92; KM12; MCF7; MDA-MB-231; NCI-H226; RPMI-8226; SNB-19; U-251; UO-31; CCRF-CEM; NCI-H522; OVCAR-3; OVCAR-4; SR; NCI/ADR-RES.
Common to all, as to assay: NCI anticancer screen, dose series, 48 h

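Cells were grown in 96-well plates and exposed to each compound for 48 hours at five concentrations; endpoints were interpolated linearly between bracketing concentrations, or set to the highest concentration if not reached. Abbreviation: GI50, concentration required for 50% inhibition of growth.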 The source made the active and inactive calls. Cut-off read from the data, not from the text of the source: active = GI50 up to about 1.1 µM and inactive = higher.

With `CCOC(=O)CCC(NC(=O)C(CCC(=O)OCC)NC(=O)C(Cc1ccc([N+](=O)[O-])cc1)NC(C)=O)C(=O)NNC(=O)OC(C)(C)C` (configuration not stated), the GI50 with ACHN, in the experiment on COLO 205, in the experiment on EKVX, in the experiment on HCC 2998, in the experiment with HCT-116 and in the experiment with HOP-92 was > 100 µM (inactive) in each case. For the same compound, the GI50 in the experiment with KM12, with MCF7, in the experiment on MDA-MB-231, in the experiment on NCI-H226, in the experiment on RPMI-8226 and in the experiment on SNB-19 was > 100 µM (inactive) throughout. The GI50 in the experiment on U-251 and with UO-31 was > 100 µM (inactive) throughout.
In the case of `C=C1C(=O)O[C@@H]2C[C@@H](C)[C@@H]3C=CC(=O)[C@@]3(C)[C@@H](O)[C@H]12` [HELENALIN], the GI50 in the experiment with ACHN is 1.66 µM (inactive); with CCRF-CEM it was 0.313 µM (active); with COLO 205, 1.56 µM (inactive); in the experiment on EKVX, 3.13 µM (inactive); in the experiment on HCC 2998 it was 1.51 µM (inactive); with HCT-116, 0.51 µM (active). Besides, the GI50 in the experiment with KM12 is 1.53 µM (inactive); in the experiment with MCF7, 0.78 µM (active); with MDA-MB-231, 3.95 µM (inactive); in the experiment on NCI-H226 it was 1.63 µM (inactive); with NCI-H522, 0.242 µM (active); in the experiment on OVCAR-3, 1.52 µM (inactive). Moreover, the GI50 in the experiment with OVCAR-4 was 2.77 µM (inactive); in the experiment on RPMI-8226, 0.532 µM (active); with SNB-19, 2.58 µM (inactive); in the experiment with SR it was 0.594 µM (active); in the experiment on U-251 it was 0.769 µM (active); in the experiment on UO-31, 1.68 µM (inactive).
On to `O=C(CC(=O)n1nc(-c2ccccc2)c(/N=N/c2ccccc2C(=O)O)c1-c1ccccc1)Nc1ccc(Cl)cc1`, for which the GI50 was 33.5 µM (inactive) with ACHN; 50.7 µM (inactive) in the experiment on COLO 205; 30.7 µM (inactive) in the experiment with EKVX; 34.4 µM (inactive) in the experiment with HCC 2998; 17.9 µM (inactive) in the experiment with HCT-116; 5.9 µM (inactive) in the experiment on HOP-92. The GI50 is > 100 µM (inactive) with KM12; 30.3 µM (inactive) in the experiment on MCF7; 33.3 µM (inactive) with MDA-MB-231; 30.6 µM (inactive) in the experiment on NCI-H226; 20.4 µM (inactive) with RPMI-8226; 21.7 µM (inactive) with SNB-19. Moreover, the figures for the GI50 in the experiment on SR, in the experiment with U-251 and with UO-31 were 11.6 µM (inactive), 19.2 µM (inactive) and 15.5 µM (inactive), respectively.
For `COc1cc(/C=C(\C#N)c2ccccn2)cc(Br)c1O`, the GI50 with ACHN is 97.7 µM (inactive); in the experiment on CCRF-CEM it was 31.3 µM (inactive); in the experiment on COLO 205 it was 35.5 µM (inactive); with EKVX it was 97.5 µM (inactive); in the experiment on HCC 2998, 36.8 µM (inactive); in the experiment on HCT-116, > 100 µM (inactive). Moreover, the GI50 was 36.1 µM (inactive) in the experiment with KM12; 24.4 µM (inactive) in the experiment with MCF7; 72.6 µM (inactive) in the experiment on NCI-H226; 27.5 µM (inactive) in the experiment on NCI-H522; 20.9 µM (inactive) in the experiment on NCI/ADR-RES; 31.8 µM (inactive) in the experiment with OVCAR-3. Also, the GI50 was > 100 µM (inactive) with OVCAR-4; 40.9 µM (inactive) in the experiment with RPMI-8226; 39 µM (inactive) in the experiment on SNB-19; 22.7 µM (inactive) in the experiment on SR; 28 µM (inactive) with U-251; 58.5 µM (inactive) with UO-31.
`CC(=O)OCC(C)C1=C(OC(C)=O)C(=O)C2(C)C/C=C(/C)CC/C=C(\C)CCC(OC(C)=O)C(C)CCC12` (configuration not stated): the GI50 with ACHN was 18.2 µM (inactive); in the experiment with CCRF-CEM it was 22.4 µM (inactive); with COLO 205, 20.8 µM (inactive); in the experiment on HCC 2998, 15.8 µM (inactive); with HCT-116, 16.9 µM (inactive); in the experiment with HOP-92 it was 7.23 µM (inactive). In addition, the GI50 in the experiment on KM12 is 17.8 µM (inactive); in the experiment with MCF7, 21.3 µM (inactive); in the experiment on MDA-MB-231, 14.3 µM (inactive); in the experiment with OVCAR-4, 17.4 µM (inactive); in the experiment on RPMI-8226, 14.3 µM (inactive); in the experiment on SNB-19, 17.3 µM (inactive). Also, the GI50 in the experiment with SR was 17.9 µM (inactive); in the experiment on U-251, 17.1 µM (inactive); with UO-31, 16.8 µM (inactive).
In the case of `O=C(O)[C@@H]1C2CC([C@@H]1C(=O)O)[C@H](N1C(=O)CCC1=O)[C@@H]2Br` (some centres not stated), the GI50 in the experiment with ACHN, in the experiment with CCRF-CEM, in the experiment on COLO 205, in the experiment on EKVX, in the experiment on HCC 2998 and in the experiment with HCT-116 was > 100 µM (inactive) throughout. The GI50 in the experiment on HOP-92, with KM12, in the experiment on MDA-MB-231, in the experiment with NCI-H226, in the experiment with NCI-H522 and with NCI/ADR-RES was > 100 µM (inactive) throughout. Moreover, the GI50 in the experiment on OVCAR-3, in the experiment with OVCAR-4, in the experiment with RPMI-8226, with SNB-19, in the experiment with SR and with U-251 was > 100 µM (inactive) each time. Besides, the GI50 in the experiment on UO-31 is > 100 µM (inactive).
As to `CC1=Cc2cccc(C)c2C(=O)C1=O` [O-HIBISCANONE], the GI50 with ACHN was 5.12 µM (inactive); with CCRF-CEM, 0.379 µM (active); in the experiment with COLO 205, 1.91 µM (inactive); with EKVX, 8.11 µM (inactive); in the experiment with HCC 2998, 14.6 µM (inactive); in the experiment with HCT-116, 2.73 µM (inactive). Moreover, the GI50 in the experiment on HOP-92 was 1.49 µM (inactive); in the experiment on KM12, 4.71 µM (inactive); in the experiment with NCI-H226, 15.8 µM (inactive); in the experiment with NCI-H522, 4.72 µM (inactive); in the experiment with OVCAR-3 it was 4.37 µM (inactive); with OVCAR-4, 5.31 µM (inactive). The GI50 in the experiment with RPMI-8226 is 1.06 µM (active); with SNB-19 it was 19.8 µM (inactive); with SR it was 0.26 µM (active); in the experiment with U-251, 10.8 µM (inactive); with UO-31, 13.9 µM (inactive).
Regarding `Cn1ccnc1S/C(=C\C=C(C#N)C#N)c1ccc(Cl)cc1`, the GI50 with ACHN was 0.693 µM (active); in the experiment on CCRF-CEM it was 0.126 µM (active); in the experiment on COLO 205, 2.99 µM (inactive); with EKVX, 7.89 µM (inactive); in the experiment with HCC 2998, 4.92 µM (inactive); with HCT-116 it was 0.324 µM (active). The GI50 is 1.31 µM (inactive) in the experiment on HOP-92; 2.06 µM (inactive) in the experiment on KM12; 0.698 µM (active) in the experiment with MCF7; 2.45 µM (inactive) with NCI-H522; 2.22 µM (inactive) in the experiment with NCI/ADR-RES; 2.22 µM (inactive) in the experiment with OVCAR-3. For the same compound, the GI50 in the experiment with OVCAR-4 is 4.09 µM (inactive); with SNB-19, 3.48 µM (inactive); in the experiment with SR, 0.143 µM (active); in the experiment on U-251, 2.82 µM (inactive); in the experiment on UO-31, 2.64 µM (inactive).
`COc1cc(OC)c(C2c3cc4c(cc3OC(N3CCOCC3)C2C)OCO4)c(OC)c1` (configuration not stated): the GI50 with ACHN was 12.3 µM (inactive); with CCRF-CEM, 33.8 µM (inactive); with COLO 205, 35.2 µM (inactive); in the experiment with EKVX, 80.5 µM (inactive); with HCC 2998, > 100 µM (inactive); with HCT-116, 7.4 µM (inactive). Besides, the GI50 in the experiment on KM12 is 24.5 µM (inactive); in the experiment with MCF7, 37.8 µM (inactive); with NCI-H522, > 100 µM (inactive); with NCI/ADR-RES it was 34.8 µM (inactive); with OVCAR-3, 7.29 µM (inactive); in the experiment on RPMI-8226, 20.2 µM (inactive). Further, the GI50 is 28.7 µM (inactive) in the experiment with SNB-19, 18 µM (inactive) in the experiment with SR and 16.5 µM (inactive) with UO-31.
In the case of `CCOC(=O)c1cnn2c1ncc1c(=O)n(NC(N)=O)ccc12`, the GI50 in the experiment on ACHN, in the experiment with CCRF-CEM, in the experiment with COLO 205, in the experiment with EKVX, in the experiment with HCT-116 and in the experiment with HOP-92 was > 100 µM (inactive) each time. The GI50 with KM12, in the experiment with MCF7, with MDA-MB-231, in the experiment on NCI-H226, with NCI-H522 and with OVCAR-3 was > 100 µM (inactive) each time. Besides, the GI50 with OVCAR-4, in the experiment with SNB-19, in the experiment on U-251 and in the experiment on UO-31 was > 100 µM (inactive) throughout.
For `O=C1Nc2ccccc2C(=O)/C1=C/NC(=S)NCc1ccccc1`, the GI50 with ACHN, with COLO 205, with EKVX, with HCT-116, in the experiment on HOP-92 and in the experiment with KM12 was > 100 µM (inactive) each time. Besides, the GI50 in the experiment on MCF7, with MDA-MB-231, in the experiment on NCI-H226, in the experiment on NCI/ADR-RES, in the experiment with OVCAR-3 and in the experiment on SNB-19 was > 100 µM (inactive) throughout. Moreover, the GI50 with U-251 and in the experiment on UO-31 was > 100 µM (inactive) throughout.
As to `CC[N+](C)(CC)CCNC(=O)C(O)(c1ccccc1)c1ccccc1`, the GI50 in the experiment on ACHN, in the experiment on CCRF-CEM, in the experiment on COLO 205, with EKVX, with HCC 2998 and in the experiment with HCT-116 was > 100 µM (inactive) each time. Further, the GI50 was > 100 µM (inactive) in the experiment with HOP-92; 72.9 µM (inactive) in the experiment on KM12; > 100 µM (inactive) with MCF7; > 100 µM (inactive) in the experiment with NCI-H226; > 100 µM (inactive) in the experiment on NCI-H522; > 100 µM (inactive) with NCI/ADR-RES. Besides, the GI50 with OVCAR-3, with OVCAR-4, in the experiment with RPMI-8226, in the experiment on SNB-19, with SR and in the experiment with U-251 was > 100 µM (inactive) each time. In the experiment with UO-31, the GI50 was > 100 µM (inactive).

Values taken from ChEMBL document CHEMBL1201862, “PubChem BioAssay data set” (2004).
